In ChEMBL document CHEMBL5500406, “Discovery of Novel Proteolysis-Targeting Chimera Molecules as Degraders of Programmed Cell Death-Ligand 1 for Breast Cancer Therapy” (J Med Chem, 2024):
The source made the active and inactive calls. The rule behind the calls is not given here.

Tests used:
[1] = target: T1, Protein cereblon/Programmed cell death 1 ligand 1 (Mus musculus) (UniProt Q9EP73+Q8C7D2); assay: PROTAC activity at CRBN/PD-L1 in mouse 4T1 cells assessed as protein degradation at 0.078 to 2.5 uM incubated for 24 hrs by Western blot analysis; assay type: cell-based; details: dose 0.078-2.5 µM
[2] = target: Protein cereblon/Programmed cell death 1 ligand 1 (Mus musculus, UniProt Q9EP73+Q8C7D2); assay: PROTAC activity at CRBN/PD-L1 in mouse 4T1 cells assessed as protein degradation incubated for 24 hrs by Western blot analysis; assay type: cell-based
[3] = target: T1, Protein cereblon/Programmed cell death 1 ligand 1 (Mus musculus); assay: PROTAC activity at CRBN/PD-L1 in mouse 4T1 cells assessed as protein degradation at 0.078 to 10 uM measured for 48 hrs by Western blot analysis; assay type: cell-based; details: dose 0.078-10 µM
[4] = target: T1, Protein cereblon/Programmed cell death 1 ligand 1 (Mus musculus); assay: PROTAC activity at CRBN/PD-L1 in mouse 4T1 cells assessed as protein degradation at 0.312 uM incubated for 24 hrs in presence of siCRBN by Western blot analysis; assay type: cell-based
[5] = target: T1, Protein cereblon/Programmed cell death 1 ligand 1 (Mus musculus); assay: PROTAC activity at CRBN/PD-L1 in mouse 4T1 cells assessed as protein degradation at 0.312 uM incubated for 24 hrs in presence of MG132 by Western blot analysis; assay type: cell-based
[6] = target: T1, Protein cereblon/Programmed cell death 1 ligand 1 (Mus musculus); assay: PROTAC activity at CRBN/PD-L1 in mouse 4T1 cells assessed as reduction in green fluorescence in cell membrane at 0.312 uM incubated for 24 hrs by immunofluorescence analysis; assay type: cell membranes
Protein cereblon = target: T2, Protein cereblon (Mus musculus, UniProt Q8C7D2); assay: Binding affinity to mouse CRBN assessed as dissociation constant incubated for 15 mins by MST assay
T2 sequence (Q8C7D2 whole entry): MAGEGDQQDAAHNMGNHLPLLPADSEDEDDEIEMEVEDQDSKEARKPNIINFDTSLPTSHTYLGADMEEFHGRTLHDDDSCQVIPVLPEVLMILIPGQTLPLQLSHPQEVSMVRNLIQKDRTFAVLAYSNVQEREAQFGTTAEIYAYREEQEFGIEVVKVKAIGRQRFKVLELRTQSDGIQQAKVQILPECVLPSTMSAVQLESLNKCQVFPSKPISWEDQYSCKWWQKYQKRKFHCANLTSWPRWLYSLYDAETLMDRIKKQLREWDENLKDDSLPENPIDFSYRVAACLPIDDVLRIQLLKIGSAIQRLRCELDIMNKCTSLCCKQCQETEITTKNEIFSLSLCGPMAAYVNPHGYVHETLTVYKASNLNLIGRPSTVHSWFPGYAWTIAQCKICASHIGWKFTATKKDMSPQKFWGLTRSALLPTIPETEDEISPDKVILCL

4T1 [7] = assay: Antitumor activity against mouse 4T1 cells assessed as decrease in cell viability at 0.078 to 0.312 uM incubated for 24 hrs by LDH assay; assay type: functional, cell-based; details: dose 0.078-0.312 µM
4T1 [8] = assay: Antitumor activity against mouse 4T1 cells assessed as inhibition of cell viability incubated for 48 hrs by MTT assay; assay type: functional, cell-based; details: 4T1, 48 h
4T1 [9] = assay: Antitumor activity against mouse 4T1 cells assessed as increase in cell mortality rate at 0.312 uM pretreated with compound followed by co-culture of CD3/CD28-activated PBMC cells measured after 24 hrs by LDH assay relative to control; assay type: functional
4T1 [10] = assay: Antitumor activity against mouse 4T1 cells assessed as increase in cell mortality rate at 0.078 uM pretreated with compound followed by co-culture of CD3/CD28-activated PBMC cells measured after 24 hrs by LDH assay relative to control; assay type: functional
4T1 [11] = assay: Antitumor activity against mouse 4T1 cells allografted in BALB/c mouse assessed as reduction in tumor volume at 30 to 60 mg/kg, ip qd for 15 days; assay type: functional, organism-based; details: dose 30-60 mg/kg, time 15.0 day
4T1 [12] = assay: Antitumor activity against mouse 4T1 cells allografted in BALB/c mouse assessed as reduction in tumor weight at 30 to 60 mg/kg, ip qd for 15 days; assay type: functional, organism-based; details: dose 30-60 mg/kg, time 15.0 day
4T1 [13] = assay: Antitumor activity against mouse 4T1 cells allografted in BALB/c mouse at 60 mg/kg, ip qd for 15 days relative to control; assay type: functional; details: 4T1, 360 h, time 15 day, read-out: TGI
4T1 [14] = assay: Antitumor activity against mouse 4T1 cells allografted in BALB/c mouse at 60 mg/kg, ip qd for 15 days in presence of Paclitaxel relative to control; assay type: functional; details: 4T1, 360 h, time 15 day, read-out: TGI
[15] = Toxicity in BALB/c mouse allografted with mouse 4T1 cells assessed as pathological change in heart at 30 to 60 mg/kg, ip qd for 15 days by H and E staining based analysis; assay type: organism-based; details: in vivo, 360 h, dose 30-60 mg/kg, time 15 day
[16] = Toxicity in BALB/c mouse allografted with mouse 4T1 cells assessed as pathological change in liver at 30 to 60 mg/kg, ip qd for 15 days by H and E staining based analysis; assay type: organism-based; details: in vivo, 360 h, dose 30-60 mg/kg, time 15 day
[17] = Toxicity in BALB/c mouse allografted with mouse 4T1 cells assessed as pathological change in spleen at 60 mg/kg, ip qd for 15 days in presence of Paclitaxel by H and E staining based analysis; assay type: organism-based; details: in vivo, 360 h, time 15 day
[18] = Toxicity in BALB/c mouse allografted with mouse 4T1 cells assessed as pathological change in lung at 60 mg/kg, ip qd for 15 days in presence of Paclitaxel by H and E staining based analysis; assay type: organism-based; details: in vivo, 360 h, time 15 day
[19] = Toxicity in BALB/c mouse allografted with mouse 4T1 cells assessed as abnormality in routine blood analysis at 60 mg/kg, ip qd for 15 days in presence of Paclitaxel; assay type: organism-based; details: in vivo, 360 h, time 15 day
4T1 [20] = assay: In vivo PROTAC activity at CRBN/PD-L1 in mouse 4T1 cells allografted in BALB/c mouse assessed as protein degradation at 30 to 60 mg/kg, ip qd for 15 days by IHC analysis; assay type: functional, organism-based; details: dose 30-60 mg/kg, time 15.0 day
4T1 [21] = assay: Antitumor activity against mouse 4T1 cells allografted in BALB/c mouse assessed as increase in CD8+ T cells infiltration in tumor at 30 to 60 mg/kg, ip qd for 15 days by IHC analysis; assay type: functional, organism-based; details: dose 30-60 mg/kg, time 15.0 day
4T1 [22] = assay: Antitumor activity against mouse 4T1 cells allografted in BALB/c mouse assessed as increase in GzmB mRNA level in tumor at 60 mg/kg, ip qd for 15 days by qRT-PCR analysis; assay type: functional, organism-based; details: time 15.0 day
4T1 [23] = assay: Antitumor activity against mouse 4T1 cells allografted in BALB/c mouse assessed as increase in IFN-gamma mRNA level in tumor at 60 mg/kg, ip qd for 15 days by qRT-PCR analysis; assay type: functional, organism-based; details: time 15.0 day
[24] = Tmax in Sprague-Dawley rat at 30 mg/kg, ip measured for 24 hrs by LC-MS/MS analysis; assay type: ADME, organism-based; details: in vivo
[25] = Cmax in Sprague-Dawley rat at 30 mg/kg, ip measured for 24 hrs by LC-MS/MS analysis; assay type: ADME, organism-based; details: in vivo
[26] = Half life in Sprague-Dawley rat at 30 mg/kg, ip measured for 24 hrs by LC-MS/MS analysis; assay type: ADME, organism-based; details: in vivo
[27] = […] bioavailability in Sprague-Dawley rat at 30 mg/kg, ip measured for 24 hrs by LC-MS/MS analysis; assay type: ADME, organism-based; details: in vivo

T1 sequence (Q9EP73 19-290 limits assumed, one chain of several): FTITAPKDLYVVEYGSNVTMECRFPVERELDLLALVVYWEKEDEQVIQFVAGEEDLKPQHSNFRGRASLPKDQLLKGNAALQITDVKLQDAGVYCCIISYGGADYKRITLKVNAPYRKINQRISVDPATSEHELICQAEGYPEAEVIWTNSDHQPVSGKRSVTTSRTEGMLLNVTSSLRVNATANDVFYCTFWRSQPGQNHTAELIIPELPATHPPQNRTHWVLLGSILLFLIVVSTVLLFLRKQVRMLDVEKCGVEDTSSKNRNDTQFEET
Chain of Protein cereblon/Programmed cell death 1 ligand 1 (Q9EP73 whole entry, one chain of several): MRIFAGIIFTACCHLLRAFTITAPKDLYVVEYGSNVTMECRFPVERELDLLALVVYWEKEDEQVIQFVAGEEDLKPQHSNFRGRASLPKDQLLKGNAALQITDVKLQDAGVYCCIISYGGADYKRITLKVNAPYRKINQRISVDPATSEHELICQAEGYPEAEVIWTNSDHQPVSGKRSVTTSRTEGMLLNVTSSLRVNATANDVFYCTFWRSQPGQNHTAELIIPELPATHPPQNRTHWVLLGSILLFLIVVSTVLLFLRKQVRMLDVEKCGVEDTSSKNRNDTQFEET

**Q.** What does the source list for `COc1nc(OCc2cccc(-c3ccccc3)c2C)ccc1CNCCNC(=O)CCCCCCCCNC(=O)COc1ccc(C2CCC(=O)NC2=O)cc1` (stereo not drawn)?
**A.** Activity [1]: Active; DC50 [2]: 609 nM; Activity [3]: Active; Activity [4]: inactive; Activity [5]: inactive; Activity [6]: Active; Kd (Protein cereblon): 132 µM; Activity (4T1 [7]): Active; IC50 (4T1 [8]): 23.1 µM; Activity (4T1 [9]): 72.3%; Activity (4T1 [10]): 31.8%; Activity (4T1 [11]): Active; Activity (4T1 [12]): Active; inhibition in vivo at 60 mg/kg (4T1 [13]): 83.2%; inhibition in vivo at 60 mg/kg (4T1 [14]): 86.7%; Activity [15]: Non-Toxic; Activity [16]: Non-Toxic; Activity [17]: Non-Toxic; Activity [18]: Non-Toxic; Activity [19]: Non-Toxic; Activity (4T1 [20]): Active; Activity (4T1 [21]): Active; Activity (4T1 [22]): Active; Activity (4T1 [23]): Active; Tmax [24]: 2 h; Cmax [25]: 217 ng/mL; half-life [26]: 318 min; bioavailability [27]: 71.2%
